Key:
NCI-H522 = experiment: NCI 60 cell panel SRB screen; format: cell-based; details: Homo sapiens
IGROV1 = experiment: NCI 60 cell panel SRB screen; format: cell-based; details: Homo sapiens, IGROV-1
EKVX = experiment: NCI 60 cell panel SRB screen; format: cell-based, human
RXF 393 = experiment: NCI 60 cell panel SRB screen; format: cell-based; details: Homo sapiens
MDA-MB-435 = experiment: NCI 60 cell panel SRB screen; format: cell-based; details: Homo sapiens
full NCI 60 cell panel = experiment: NCI 60 cell panel SRB screen, whole panel; format: cell-based, human
HL-60(TB) = experiment: NCI 60 cell panel SRB screen; format: cell-based; details: Homo sapiens
SK-MEL-2 = experiment: NCI 60 cell panel SRB screen; format: cell-based
NCI/ADR-RES = experiment: NCI 60 cell panel SRB screen; format: cell-based; details: Homo sapiens
UO-31 = experiment: NCI 60 cell panel SRB screen; format: cell-based; details: Homo sapiens
SW-620 = experiment: NCI 60 cell panel SRB screen; format: cell-based; details: Homo sapiens; SW-620, 5 log dose
[1] = 5 log dose, 48 h, read-out: LC50 (the source's name)
[2] = single dose 10 μM, read-out: percent cell growth promotion

## Clc1ccc(Nc2nnc(CNc3ccccc3)c3ccccc23)cc1 [Compound 16a, N-(4-Chlorophenyl)-4-((phenylamino)methyl)phthalazin-1-amine]
NCI-H522; NCI-H522, 5 log dose
  GI50: 0.68 µM
  IC (TGI): 4.62 µM
NCI-H522; NCI-H522, 5 log dose, 48 h, read-out: LC50 (the source's name)
  CC50: 18.5 µM
NCI-H522; NCI-H522, single dose 10 μM, read-out: percent cell growth promotion
  activity at 10 µM: -5.92%
IGROV1; IGROV1, 5 log dose
  GI50: 1.93 µM
  IC (TGI): 10.7 µM
IGROV1; IGROV1, 5 log dose, 48 h, read-out: LC50 (the source's name)
  CC50: > 25 µM
IGROV1; IGROV1, single dose 10 μM, read-out: percent cell growth promotion
  activity at 10 µM: 19.1%
EKVX; Homo sapiens, 5 log dose
  GI50: 1.61 µM
  IC (TGI): 15 µM
EKVX; Homo sapiens, 5 log dose, 48 h
  LC50: > 25 µM
EKVX; single dose 10 μM
  percent cell growth promotion: 16.86%
RXF 393; RXF 393, 5 log dose
  GI50: 2.6 µM
  IC (TGI): 8.12 µM
RXF 393; RXF 393, 5 log dose, 48 h, read-out: LC50 (the source's name)
  CC50: > 25 µM
RXF 393; RXF 393, single dose 10 μM, read-out: percent cell growth promotion
  activity at 10 µM: 25.7%
MDA-MB-435; MDA-MB-435
  GI50: 1.47 µM
MDA-MB-435; MDA-MB-435, read-out: TGI
  IC (TGI): 7.88 µM
MDA-MB-435; MDA-MB-435, read-out: percent cell growth promotion
  activity at 10 µM: 4.17%
MDA-MB-435; MDA-MB-435, 5 log dose, 48 h, read-out: LC50 (the source's name)
  CC50: > 25 µM
Full NCI 60 cell panel; Homo sapiens, 60 cell, NCI 5-log dose, full 60 cell panel, read-out: GI50 values, range over the tested cell lines
  GI50: 0.15 to 8.41 µM
Full NCI 60 cell panel; NCI 5 log dose
  sensitivity in the 5 log dose assay, in words: insensitive to prostate and MCF-7 breast cancer cell lines
HL-60(TB); 5 log dose
  GI50: 3.71 µM
  IC (TGI): 13 µM
HL-60(TB); [1]
  CC50: > 25 µM
HL-60(TB); [2]
  activity at 10 µM: -13.3%
SK-MEL-2; Homo sapiens
  GI50: 2.16 µM
SK-MEL-2; Homo sapiens, read-out: TGI
  IC (TGI): 5.83 µM
SK-MEL-2; Homo sapiens, SK-MEL-2, 5 log dose, 48 h, read-out: LC50 (the source's name)
  CC50: 14.5 µM
SK-MEL-2; SK-MEL-2, single dose 10 μM
  percent cell growth promotion: 8.63%
NCI/ADR-RES; 5 log dose
  GI50: 4.12 µM
  IC (TGI): 17 µM
NCI/ADR-RES; [1]
  CC50: > 25 µM
NCI/ADR-RES; [2]
  activity at 10 µM: 18.8%
UO-31; UO-31, 5 log dose
  GI50: 1.36 µM
  IC (TGI): 6.66 µM
UO-31; UO-31, 5 log dose, 48 h, read-out: LC50 (the source's name)
  CC50: 23.8 µM
UO-31; UO-31, single dose 10 μM, read-out: percent cell growth promotion
  activity at 10 µM: 1.91%
SW-620
  GI50: 3.84 µM
  IC (TGI): 11.1 µM
